The term IC50 denotes the concentration that inhibits the measured activity by half. As a reminder, the Kd is a measure of binding affinity in units of concentration. Higher therefore signals lower affinity. For orientation: MIC means the smallest concentration in the dilution series that meets the test's criterion for growth inhibition. By Ki is commonly meant the dissociation constant of the complex between target and ligand, obtained from inhibition or displacement. Broadly, the EC50 is the concentration at which the effect is half-maximal. What is called inhibition is the change of the read-out against control, counted positive when it falls. A low value points to a weak effect.

Values after ≈ are worked out from the molar mass of the structure shown. Some results are limits rather than exact numbers.

The values that follow come from ChEMBL document CHEMBL5236572, “Bioactive Aurones, Indanones, and Other Hemiindigoid Scaffolds: Medicinal Chemistry and Photopharmacology Perspectives” (J Med Chem, 2022).

Experiment [1] concerns the target Acetylcholinesterase (Homo sapiens, UniProt P22303). Nature of the experiment: Inhibition of human AchE by Ellman's method.
Experiment [2] concerns the target Retinoic acid receptor alpha (Homo sapiens, UniProt P10276). The experiment can be described thus: Antagonist activity at Gal4-RARalpha transfected in HEK293 cells assessed as atRA-induced RARalpha transactivation and measured after 6 hrs by Dual-Light chemiluminiscence assay. It is filed as cell-based.
The target in experiment [3] is T1, Amine oxidase [flavin-containing] A (Homo sapiens, UniProt P21397).
T1 sequence (P21397 whole entry): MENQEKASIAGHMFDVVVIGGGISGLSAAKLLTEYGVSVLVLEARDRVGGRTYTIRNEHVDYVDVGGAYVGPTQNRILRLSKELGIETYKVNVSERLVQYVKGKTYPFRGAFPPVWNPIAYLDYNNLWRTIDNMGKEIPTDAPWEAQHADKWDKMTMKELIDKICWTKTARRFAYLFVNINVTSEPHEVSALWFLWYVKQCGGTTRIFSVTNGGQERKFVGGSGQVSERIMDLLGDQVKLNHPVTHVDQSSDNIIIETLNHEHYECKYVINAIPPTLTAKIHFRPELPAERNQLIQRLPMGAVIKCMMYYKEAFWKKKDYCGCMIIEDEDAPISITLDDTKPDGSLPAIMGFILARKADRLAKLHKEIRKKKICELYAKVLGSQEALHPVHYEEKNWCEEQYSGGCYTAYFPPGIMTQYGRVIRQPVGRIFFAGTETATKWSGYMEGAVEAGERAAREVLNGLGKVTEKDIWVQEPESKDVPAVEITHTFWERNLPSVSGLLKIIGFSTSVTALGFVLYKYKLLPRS
Nature of the experiment: Inhibition of recombinant human MAO-A.

Experiment [4] deals with T2, Amine oxidase [flavin-containing] B (Homo sapiens, UniProt P27338).
T2 sequence (P27338 whole entry): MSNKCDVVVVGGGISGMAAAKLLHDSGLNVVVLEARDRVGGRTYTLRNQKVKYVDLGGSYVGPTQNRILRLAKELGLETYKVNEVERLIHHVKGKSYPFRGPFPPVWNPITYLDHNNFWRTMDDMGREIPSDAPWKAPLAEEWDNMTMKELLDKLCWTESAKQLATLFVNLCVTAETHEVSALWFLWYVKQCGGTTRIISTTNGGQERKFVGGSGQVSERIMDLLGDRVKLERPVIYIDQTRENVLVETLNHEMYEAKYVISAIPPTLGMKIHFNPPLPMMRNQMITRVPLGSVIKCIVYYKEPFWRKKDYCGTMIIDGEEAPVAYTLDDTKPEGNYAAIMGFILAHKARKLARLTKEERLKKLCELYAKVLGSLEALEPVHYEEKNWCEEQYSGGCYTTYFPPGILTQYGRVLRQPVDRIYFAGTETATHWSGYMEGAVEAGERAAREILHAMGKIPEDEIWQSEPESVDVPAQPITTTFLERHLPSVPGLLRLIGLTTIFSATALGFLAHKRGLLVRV
Nature of the experiment: Inhibition of recombinant human MAO-B.

Experiment [5] is filed under the species Homo sapiens. The experiment can be described thus: Selectivity index, ratio of IC50 for inhibition of recombinant human MAO-A to IC50 for inhibition of recombinant human MAO-B.
The target in experiment [6] is T3, Tyrosinase (Agaricus bisporus, UniProt O42713).
T3 sequence (O42713 whole entry): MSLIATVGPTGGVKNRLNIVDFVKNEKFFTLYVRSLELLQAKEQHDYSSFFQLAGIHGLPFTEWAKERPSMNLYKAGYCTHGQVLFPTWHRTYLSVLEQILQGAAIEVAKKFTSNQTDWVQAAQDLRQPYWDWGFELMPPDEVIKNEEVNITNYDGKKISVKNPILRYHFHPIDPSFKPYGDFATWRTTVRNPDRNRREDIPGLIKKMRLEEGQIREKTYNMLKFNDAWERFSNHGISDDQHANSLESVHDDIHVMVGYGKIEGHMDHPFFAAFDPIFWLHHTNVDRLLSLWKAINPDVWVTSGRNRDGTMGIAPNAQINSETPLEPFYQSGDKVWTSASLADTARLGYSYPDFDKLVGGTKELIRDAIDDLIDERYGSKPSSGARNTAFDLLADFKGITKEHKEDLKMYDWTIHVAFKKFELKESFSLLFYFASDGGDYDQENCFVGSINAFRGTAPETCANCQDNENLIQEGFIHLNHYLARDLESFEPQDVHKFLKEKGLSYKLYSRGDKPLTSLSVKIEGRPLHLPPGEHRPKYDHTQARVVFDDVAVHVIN
The experiment can be described thus: Inhibition of mushroom tyrosinase using L-tyrosine as substrate incubated for 30 mins by spectrophotometric analysis.

Experiment [7] in a line: Binding affinity to Helicobacter pylori HTRA by SPR analysis. Background: In SPR one partner is held on a chip, and binding of the other changes the refractive index at the surface.
For experiment [8], the system named is Mucor mucedo. The experiment can be described thus: Antifungal activity against Mucor mucedo assessed as reduction in fungal growth incubated for 24 hrs by disk diffusion assay. It is filed as functional.
For experiment [9], the system named is Rhizopus arrhizus. The experiment can be described thus: Antifungal activity against Rhizopus oryzae assessed as reduction in fungal growth incubated for 24 hrs by disk diffusion assay. It is filed as functional. A general note: In agar diffusion tests the substance spreads into inoculated agar from a disc or well.
Experiment [10] has as its system Aspergillus flavus. The experiment can be described thus: Antifungal activity against Aspergillus flavus assessed as reduction in fungal growth incubated for 24 hrs by disk diffusion assay. It is filed as functional.
Experiment [11] has as its system Aspergillus niger. The experiment can be described thus: Antifungal activity against Aspergillus niger assessed as reduction in fungal growth incubated for 24 hrs by disk diffusion assay. It is filed as functional.
The test system of experiment [12] is SH-SY5Y. The experiment can be described thus: Cytotoxicity against human SH-SY5Y cells assessed as reduction in cell viability. It is filed as functional, cell-based.
The subject of experiment [13] is NB-4. The experiment can be described thus: Cytotoxicity against human NB-4 cells assessed as reduction in cell viability. It is filed as functional, cell-based.
In experiment [14] the target is Serine/threonine-protein kinase AKT (Homo sapiens, UniProt P31751+Q9Y243+P31749). The experiment can be described thus: Inhibition of AKT (unknown origin). It is filed as protein assay.
Experiment [15] deals with T1, Amine oxidase [flavin-containing] A. The experiment can be described thus: Inhibition of recombinant human MAO-A using p-tyramine as substrate by Amplex-Red MAO assay.
Experiment [16] concerns the target T2, Amine oxidase [flavin-containing] B. The experiment can be described thus: Inhibition of recombinant human MAO-B using p-tyramine as substrate by Amplex-Red MAO assay.
The test system of experiment [17] is Mycobacterium tuberculosis. The experiment can be described thus: Antimicrobial activity against Mycobacterium tuberculosis assessed as reduction in bacterial growth by Alamar Blue fluorescence assay. It is filed as functional, organism-based. (In general: Resazurin is reduced to fluorescent resorufin, in cell work by metabolically active cells.)
For experiment [18], the target named is Histone deacetylase 4 (Homo sapiens, UniProt P56524). Nature of the experiment: Inhibition of human HDAC4 in HeLa cells extract incubated for 5 mins followed by substrate addition and measured after 15 mins using Fluor-de-Lys as substrate by spectrofluorometric analysis. It is filed as cell-free.
Experiment [19] deals with HT-22. Nature of the experiment: Neuroprotective activity against glutamate induced-neurotoxicity in mouse HT-22 cells assessed as cell viability at 40 uM preincubated for 4 hrs followed by glutamate stimulation and measured after 12 hrs by MTT assay. It is filed as functional. The note with it: time 16 hrs, read-out: Activity.
Experiment [20] has as its target Histone deacetylase 2 (Homo sapiens, UniProt Q92769). The experiment can be described thus: Inhibition of human HDAC2 in HeLa cells extract incubated for 5 mins followed by substrate addition and measured after 15 mins using Fluor-de-Lys as substrate by spectrofluorometric analysis. It is filed as cell-free.
The target of experiment [21] is Histone deacetylase 8 (Homo sapiens, UniProt Q9BY41). Nature of the experiment: Inhibition of human HDAC8 in HeLa cells extract incubated for 5 mins followed by substrate addition and measured after 15 mins using Fluor-de-Lys as substrate by spectrofluorometric analysis. It is filed as cell-free.
In experiment [22] the target is Histone deacetylase 7 (Homo sapiens, UniProt Q8WUI4). Nature of the experiment: Inhibition of human HDAC7 in HeLa cells extract incubated for 5 mins followed by substrate addition and measured after 15 mins using Fluor-de-Lys as substrate by spectrofluorometric analysis. It is filed as cell-free.
For experiment [23], the system named is HT-22. Nature of the experiment: Neuroprotective activity against glutamate induced-neurotoxicity in mouse HT-22 cells assessed as cell viability preincubated for 4 hrs followed by glutamate stimulation and measured after 12 hrs by MTT assay. It is filed as functional, cell-based.
The nature of experiment [24]: Inhibition of synthetic AcPHF6 peptide aggregation measured upto 120 mins at 1 min interval by ThT-based fluorometric assay.
In experiment [25] the test system is PC-3. Nature of the experiment: Antiproliferative activity against doxorubicin resistant human PC-3 cells assessed as inhibition of cell proliferation by Beckman Coulter analysis. It is filed as functional, cell-based.

Histone deacetylase 4, sequence (P56524 whole entry): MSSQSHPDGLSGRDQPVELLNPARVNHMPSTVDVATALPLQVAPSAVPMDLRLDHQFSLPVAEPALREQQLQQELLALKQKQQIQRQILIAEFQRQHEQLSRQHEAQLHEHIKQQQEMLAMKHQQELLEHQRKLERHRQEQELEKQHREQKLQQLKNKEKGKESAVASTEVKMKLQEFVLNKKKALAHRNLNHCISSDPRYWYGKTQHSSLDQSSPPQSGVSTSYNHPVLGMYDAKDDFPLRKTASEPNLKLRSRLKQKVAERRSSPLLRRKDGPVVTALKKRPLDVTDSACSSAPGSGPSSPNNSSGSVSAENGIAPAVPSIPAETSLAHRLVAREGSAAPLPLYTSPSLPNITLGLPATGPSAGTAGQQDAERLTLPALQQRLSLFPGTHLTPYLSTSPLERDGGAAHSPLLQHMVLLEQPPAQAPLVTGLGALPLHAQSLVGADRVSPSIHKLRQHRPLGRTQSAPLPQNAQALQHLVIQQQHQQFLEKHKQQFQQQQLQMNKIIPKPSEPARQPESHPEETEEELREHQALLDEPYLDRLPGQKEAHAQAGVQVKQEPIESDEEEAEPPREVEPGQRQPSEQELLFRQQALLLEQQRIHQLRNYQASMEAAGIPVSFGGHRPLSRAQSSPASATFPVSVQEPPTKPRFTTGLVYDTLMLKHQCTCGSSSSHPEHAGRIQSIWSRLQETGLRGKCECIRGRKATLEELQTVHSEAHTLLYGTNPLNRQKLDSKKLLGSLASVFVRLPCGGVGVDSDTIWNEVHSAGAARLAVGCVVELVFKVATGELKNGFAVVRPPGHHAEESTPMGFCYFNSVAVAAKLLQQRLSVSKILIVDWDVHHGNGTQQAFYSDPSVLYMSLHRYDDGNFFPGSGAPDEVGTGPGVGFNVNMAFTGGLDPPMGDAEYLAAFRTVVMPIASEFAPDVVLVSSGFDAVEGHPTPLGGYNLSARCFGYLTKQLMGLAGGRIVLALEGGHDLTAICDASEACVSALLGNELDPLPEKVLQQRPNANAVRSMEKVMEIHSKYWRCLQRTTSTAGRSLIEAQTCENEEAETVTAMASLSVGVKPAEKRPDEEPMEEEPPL
Histone deacetylase 8, sequence (Q9BY41 whole entry): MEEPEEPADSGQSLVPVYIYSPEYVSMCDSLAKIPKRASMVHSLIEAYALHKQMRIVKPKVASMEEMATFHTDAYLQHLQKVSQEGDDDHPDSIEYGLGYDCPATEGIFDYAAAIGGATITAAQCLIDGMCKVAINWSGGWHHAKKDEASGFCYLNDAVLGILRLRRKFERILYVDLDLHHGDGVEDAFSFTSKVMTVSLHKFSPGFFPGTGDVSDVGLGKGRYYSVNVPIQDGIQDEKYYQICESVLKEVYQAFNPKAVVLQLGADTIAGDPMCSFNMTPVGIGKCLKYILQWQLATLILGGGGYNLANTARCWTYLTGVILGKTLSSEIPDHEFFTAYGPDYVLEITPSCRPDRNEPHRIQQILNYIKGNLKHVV
Acetylcholinesterase, sequence (P22303 whole entry, the tested form may be a part): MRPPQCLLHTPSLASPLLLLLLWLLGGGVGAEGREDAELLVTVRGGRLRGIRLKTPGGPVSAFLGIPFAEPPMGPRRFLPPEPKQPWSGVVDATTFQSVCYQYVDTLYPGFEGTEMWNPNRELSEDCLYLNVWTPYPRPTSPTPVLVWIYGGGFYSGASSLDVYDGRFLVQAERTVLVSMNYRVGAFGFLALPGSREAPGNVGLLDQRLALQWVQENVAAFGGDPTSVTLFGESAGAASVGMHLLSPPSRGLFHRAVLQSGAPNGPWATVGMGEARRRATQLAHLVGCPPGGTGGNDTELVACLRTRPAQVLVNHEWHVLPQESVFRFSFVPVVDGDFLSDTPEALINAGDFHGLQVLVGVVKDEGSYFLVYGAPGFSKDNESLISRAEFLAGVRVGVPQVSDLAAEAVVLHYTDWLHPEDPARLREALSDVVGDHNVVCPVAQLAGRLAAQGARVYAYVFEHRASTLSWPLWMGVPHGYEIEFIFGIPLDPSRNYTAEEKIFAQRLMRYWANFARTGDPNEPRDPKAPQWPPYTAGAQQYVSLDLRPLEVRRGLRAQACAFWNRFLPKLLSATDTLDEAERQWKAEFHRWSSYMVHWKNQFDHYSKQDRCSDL
Histone deacetylase 7, sequence (Q8WUI4 whole entry): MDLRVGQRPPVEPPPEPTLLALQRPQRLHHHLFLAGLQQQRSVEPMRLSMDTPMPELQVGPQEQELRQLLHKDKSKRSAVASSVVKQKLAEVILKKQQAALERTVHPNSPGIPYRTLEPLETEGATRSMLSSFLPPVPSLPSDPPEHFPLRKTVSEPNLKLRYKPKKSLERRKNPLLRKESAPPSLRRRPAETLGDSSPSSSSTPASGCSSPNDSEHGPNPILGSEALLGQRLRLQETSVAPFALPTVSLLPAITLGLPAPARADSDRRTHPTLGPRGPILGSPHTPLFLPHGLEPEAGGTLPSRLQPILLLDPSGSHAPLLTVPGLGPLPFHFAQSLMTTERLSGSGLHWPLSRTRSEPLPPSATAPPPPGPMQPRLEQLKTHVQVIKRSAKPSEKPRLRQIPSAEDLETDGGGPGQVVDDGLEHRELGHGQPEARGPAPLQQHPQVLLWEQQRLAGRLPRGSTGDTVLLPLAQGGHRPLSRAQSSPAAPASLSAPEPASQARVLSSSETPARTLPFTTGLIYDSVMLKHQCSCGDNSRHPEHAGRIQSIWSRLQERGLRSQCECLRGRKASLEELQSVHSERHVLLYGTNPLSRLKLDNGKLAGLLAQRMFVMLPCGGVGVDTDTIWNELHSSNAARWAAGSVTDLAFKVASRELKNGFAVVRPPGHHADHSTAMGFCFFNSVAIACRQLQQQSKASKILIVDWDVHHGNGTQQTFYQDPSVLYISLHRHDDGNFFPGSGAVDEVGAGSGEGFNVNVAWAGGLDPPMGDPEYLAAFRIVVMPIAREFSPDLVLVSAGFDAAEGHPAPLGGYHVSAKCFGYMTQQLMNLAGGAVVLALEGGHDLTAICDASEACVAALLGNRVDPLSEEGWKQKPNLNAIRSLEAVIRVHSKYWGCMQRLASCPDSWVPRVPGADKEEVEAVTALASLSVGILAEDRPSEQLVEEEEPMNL
Retinoic acid receptor alpha, sequence (P10276 whole entry, the tested form may be a part): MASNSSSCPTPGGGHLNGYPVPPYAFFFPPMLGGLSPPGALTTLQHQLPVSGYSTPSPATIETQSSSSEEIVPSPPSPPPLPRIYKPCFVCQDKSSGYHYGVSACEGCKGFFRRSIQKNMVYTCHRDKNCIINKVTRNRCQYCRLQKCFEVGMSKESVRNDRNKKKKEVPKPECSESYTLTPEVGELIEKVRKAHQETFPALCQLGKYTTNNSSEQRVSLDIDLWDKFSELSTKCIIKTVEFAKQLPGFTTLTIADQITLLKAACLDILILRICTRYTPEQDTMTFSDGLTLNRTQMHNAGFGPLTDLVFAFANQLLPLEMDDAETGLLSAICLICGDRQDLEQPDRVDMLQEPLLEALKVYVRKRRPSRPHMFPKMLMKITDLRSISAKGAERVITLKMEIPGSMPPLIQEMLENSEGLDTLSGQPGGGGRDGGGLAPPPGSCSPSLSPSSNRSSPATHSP
Histone deacetylase 2, sequence (Q92769 whole entry): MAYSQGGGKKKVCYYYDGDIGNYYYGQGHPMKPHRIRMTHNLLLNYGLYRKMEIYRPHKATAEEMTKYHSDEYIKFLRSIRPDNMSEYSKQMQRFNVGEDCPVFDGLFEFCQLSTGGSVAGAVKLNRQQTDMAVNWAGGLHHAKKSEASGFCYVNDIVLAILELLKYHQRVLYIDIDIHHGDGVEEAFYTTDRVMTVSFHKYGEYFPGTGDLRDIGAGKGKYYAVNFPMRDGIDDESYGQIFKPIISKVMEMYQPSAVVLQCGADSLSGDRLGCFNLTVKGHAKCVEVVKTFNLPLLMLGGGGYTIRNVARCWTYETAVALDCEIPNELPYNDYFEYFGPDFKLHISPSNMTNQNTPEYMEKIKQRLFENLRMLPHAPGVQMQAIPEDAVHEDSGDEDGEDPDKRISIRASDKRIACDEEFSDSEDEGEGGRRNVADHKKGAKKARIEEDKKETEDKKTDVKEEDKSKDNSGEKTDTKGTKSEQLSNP

As for `COc1cc2c(cc1OC)C(=O)/C(=C/c1ccc(OCCN3CCCCC3)cc1)C2`, the IC50 in experiment [1] stood at 300 nM.

Turning to `COCCOCOc1cc2c(cc1C13CC4CC(CC(C4)C1)C3)C(=O)/C(=C/c1ccc(C(=O)O)cc1)O2`, in [2], the IC50 is 4420 nM.

In the case of `COc1cc2c(cc1OC)C(=O)/C(=C/c1ccc(N(C)C)cc1)C2`, the IC50 in experiment [3] amounted to 20 nM; in [4], 58000 nM. The Ratio IC50 in experiment [5] was over 2500.

With `O=C1/C(=C/c2ccc(O)cc2O)Cc2ccc3ccccc3c21`, the half-maximal inhibitory concentration (IC50) in [6] was 150 nM.

`O=C(O)c1cc(-c2ccc(/C=C3\Sc4ccccc4C3=O)o2)ccc1Cl` had a Kd in experiment [7] of 12000 nM. In other words, the double-digit micromolar range.

For the compound `O=C1/C(=C/c2ccncc2)Cc2ccc3c(c21)CCO3`, the MIC in [8], in experiment [9], in [10] and in experiment [11] was 60 µM (≈ 15.8 µg/mL) in each case.

Turning to `COc1ccc(/C=C2\Oc3c(ccc4c3C(=O)CC(C)(C)O4)C2=O)cc1`, the values for the IC50 in experiment [12] and in experiment [13] were 3400 nM and 4800 nM, respectively.

`Cc1ccc(C)c2c1C/C(=C\c1ccccc1)C2=O` returned an IC50 in experiment [14] of 207 nM.

Consider `O=C1/C(=C/c2c3ccccc3cc3ccccc23)Oc2ccccc21`, for which the Ki in experiment [15] was determined as 110 nM; in [16], 200 nM.

With `CCOc1ccc2c(c1)O/C(=C\c1cccc(OCC(=O)OC)c1)C2=O`, the IC50 in experiment [17] stood at 4800 nM.

On to `O=C1/C(=C/c2ccc(O)c(O)c2)Oc2cc(O)cc(O)c21` [AUREUSIDIN], for which the Ki was 800 nM in [18], 1660 nM in experiment [20], 1660 nM in [21] and 1660 nM in experiment [22]. Also, the viability at 40 µM in experiment [19] was 97%. The EC50 in [23] turned out to be 11900 nM. In [24], this compound registered an inhibition of 62%.

Turning to `COc1ccc(/C=C2\Oc3c(ccc(OC(C)=O)c3COC(C)=O)C2=O)cc1OC`, in [25], the IC50 is 740 nM.
